# Data from patent US9322066B2, “Predictors for cancer treatment” (priority 2011, dated 2016).
# Tested on: relapsed or refractory, rituximab-naive or -sensitive follicular B-cell NHL
# Experiment: Overall survival (OS), Vc-R vs rituximab study, by biomarker
# Format: in vivo, human
# Set-up: OS Median: unit not given here
# Source text: Non-Hodgkin lymphoma (NHL) encompasses several unique malignant lymphoid disease entities that vary in clinical behavior, morphologic appearance, immunologic, and molecular phenotype. […] A randomized, open-label, active-controlled, multicenter, multinational, prospective study to compare the efficacy and safety of the combination of bortezomib and rituximab (Vc-R) to single-agent rituximab in subjects who have relapsed or refractory, rituximab-naive or -sensitive follicular B-cell NHL was performed.
# Subjects were centrally randomized to Treatment Groups A (Vc-R) or B (rituximab) in a 1:1 ratio taking into account the following stratification factors: • Follicular Lymphoma International Prognostic Index (FLIPI) score (low [0 or 1 factor], intermediate [2 factors], high [≧3 factors]); • Prior rituximab therapy (yes, no); • Time since last dose of anti-lymphoma therapy (≦1 year, >1 year); • Region (United States/Canada, European Union, Rest of World).
# The following clinical endpoints were included in the analysis within each treatment group and an overall comparison was made with the biomarker-related endpoints: Progression-free survival, defined as the interval between the date of randomization and the date of progressive disease (PD) or death, whichever is first reported in the ITT population; overall survival; overall response rate (complete response [CR]+CR unconfirmed [CRu]+partial response [PR]); overall CR rate (CR+CRu); duration of response; time to next anti-lymphoma therapy; and treatment free interval.
# Overall Survival was measured from the date of randomization to the date of the subject's death. If the subject was alive or the vital status was unknown, it was censored at the date that the subject was last known to be alive. Similar to PFS and TTP, the Cox proportional hazard model was used to evaluate the association between biomarker endpoints and OS. Kaplan-Meier survival curves were presented. Analyses were done for the population overall and by treatment group, and each of these analyses was stratified by the covariates used for PFS.
# [1] = 20S % POSITIVE CYTOPLASMIC SIGNAL: 95-100, 2 Prior Lines of Therapy
# [2] = 20S % POSITIVE CYTOPLASMIC SIGNAL: 95-100, Ann Arbor Stage IV
# [3] = BCL2/P59L: MD, Ann Arbor Stage IV
# [4] = BCL2/P59L: MD, High FLIPI Score
# [5] = BCL2/P59L: MD, High Tumor Burden
# [6] = BCL2/P59L: MD, No Prior Rituximab Therapy
# [7] = CD68 OVERALL POSITIVE: 26-50, 2 Prior Lines of Therapy
# [8] = CD68 POSITIVE PERIFOLLICULAR: 26-50, 2 Prior Lines of Therapy
# [9] = NOTCH/P2513L: MD, >65 years old
# [10] = PSMB5/R24C: C/T, Ann Arbor Stage IV
# [11] = PSMB5/R24C: C/T, Intermediate FLIPI Score
substance,measurement,setting,value
rituximab,OS Evt/N,"20S % POSITIVE CYTOPLASMIC SIGNAL: 0-20, 2 Prior Lines of Therapy",1/10
same,OS Evt/N,"20S % POSITIVE CYTOPLASMIC SIGNAL: 0-20, Ann Arbor Stage IV",1/15
same,OS Evt/N,[1],14/35
same,OS Median,[1],1205
same,OS Evt/N,[2],25/56
same,OS Median,[2],1205
same,Median OS (Vc − R vs R),"20S INTENSITY CYTOPLASMIC SIGNAL >=3+ + P65 % POSITIVE CYTOPLASMIC SIGNAL <=90%, Selected (biomarker positive)",717 days
same,OS Evt/N,"20S INTENSITY CYTOPLASMIC SIGNAL: ≦2+, Intermediate FLIPI Score",2/48
same,OS Evt/N,"20S INTENSITY CYTOPLASMIC SIGNAL: ≧3+, Male",10/27
same,Median OS (Vc − R vs R),"AGEGRP >65 + CD68 POSITIVE FOLLICULAR >50, Selected (biomarker positive)",971 days
same,OS Evt/N,[3],5/5
same,OS Median,[3],174
same,OS Evt/N,"BCL2/P59L: MD, Female",6/8
same,OS Median,"BCL2/P59L: MD, Female",536
same,OS Evt/N,[4],6/6
same,OS Median,[4],282
same,OS Evt/N,[5],5/6
same,OS Median,[5],282
same,OS Evt/N,[6],5/5
same,OS Median,[6],174
same,OS Evt/N,"BCL2/P59L: MD, Rest of World",4/5
same,OS Median,"BCL2/P59L: MD, Rest of World",174
same,OS Evt/N,"BCL2/R106H: MD, Male",8/10
same,OS Median,"BCL2/R106H: MD, Male",318
same,OS Evt/N,[7],13/26
same,OS Median,[7],1205
same,OS Evt/N,"CD68 OVERALL POSITIVE: 26-50, No High Tumor Burden",14/54
same,OS Evt/N,"CD68 OVERALL POSITIVE: 51-75, Ann Arbor Stage III",2/21
same,OS Evt/N,"CD68 POSITIVE FOLLICULAR: 0-25, No Prior Rituximab Therapy",11/36
same,OS Evt/N,"CD68 POSITIVE FOLLICULAR: 0-25, ≦65 years old",14/46
same,OS Evt/N,[8],7/16
same,OS Median,[8],1205
same,OS Evt/N,"CD68 POSITIVE PERIFOLLICULAR: 26-50, Male",11/30
same,OS Evt/N,"CD68 POSITIVE PERIFOLLICULAR: 26-50, No High Tumor Burden",10/41
same,Median OS (Vc − R vs R),"FLIPI High + CD68 POSITIVE FOLLICULAR 0-50, Selected",1263 days
same,Median OS (Vc − R vs R),"FLIPI High + P27 % NUCLEI POSITIVE 0-70, Selected",1111 days
same,Median OS (Vc − R vs R),"FLIPI High + P27 SIGNAL INTENSITY >=2+, Selected",1263 days
same,OS Evt/N,[9],8/13
same,OS Median,[9],795
same,OS Evt/N,"NOTCH/P2513L: MD, No High Tumor Burden",7/26
same,OS Evt/N,"NOTCH/Q2460X: MD, Male",3/3
same,OS Median,"NOTCH/Q2460X: MD, Male",595
same,OS Evt/N,"NOTCH/X28DEL: MND, 2 Prior Lines of Therapy",20/56
same,OS Evt/N,"NOTCH/X28DEL: MND, Male",26/75
same,OS Evt/N,"P27 % NUCLEI POSITIVE: 0-20, No High Tumor Burden",3/29
same,OS Evt/N,"P27 % NUCLEI POSITIVE: 60-70, Male",4/12
same,OS Evt/N,"P65 % POSITIVE CYTOPLASMIC SIGNAL: >90%, 2 Prior Lines of Therapy",19/52
same,OS Evt/N,"P65 INTENSITY CYTOPLASMIC SIGNAL: ≦1+, Intermediate FLIPI Score",1/17
same,OS Evt/N,"P65 INTENSITY CYTOPLASMIC SIGNAL: ≧2+, 2 Prior Lines of Therapy",19/55
same,OS Evt/N,[10],9/15
same,OS Median,[10],717
same,OS Evt/N,[11],4/10
same,OS Median,[11],971
same,OS Evt/N,"PSMB9/R60H: A/A, 3 Prior Lines of Therapy",1/6
same,Median OS (Vc-R vs R),"SEX MALE + 20S % NUCLEAR STAINING 30-90, Selected",1263 days
same,Median OS (Vc-R vs R),Selected: FLIPI High and P65 % POSITIVE CYTOPLASMIC SIGNAL >90%,1263 days
